This is an account of results in US20240074473A1, “METHOD FOR INDUCING HYPERTROPHIC MUSCLE FIBERS FOR INDUSTRIAL MEAT PRODUCTION” (Yeda Research and Development Co. Ltd., priority 2021, published 2024).

Common to all, as to type: cell-based
The subject of one test is chicken myoblasts. Kind of test: Immunofluorescence of sarcomeric proteins in chicken myotubes. To be noted: 48 hours post treatment. The method, then:
Chicken primary derived myoblasts were used as a model to evaluate the efficiency of SCH772984 as the ERKi, compared to conventional differentiation medium (DM) for the purpose of producing muscle (meat) in tissue culture conditions. Chicken myoblasts were isolated from chicken embryos and expanded in proliferation medium. When sufficient cell numbers were acquired, cells were seeded on tissue culture plates and allowed to adhere for 24 hours. Then medium was changed to either PM supplemented with ERKi or DM. At 24-hours post treatment, the cells that received ERKi were replenished with fresh PM (without the addition of more ERKi), and DM treated cells were replenished with fresh DM. Media was replaced daily over a period of 72 hours.

In the next test the test system is primary mouse myoblasts. In words: MYOG positive nuclei in primary mouse myoblasts (immunofluorescence). To be noted: 24 hours, ERKi in growth medium. Here is the method:
Isolation of and treatment of primary myoblasts. Primary mouse myoblasts were isolated from gastrocnemius muscle using trypsin-tissue dissociation. Briefly, muscle tissues were incubated in Trypsin B (0.25%, Biological Industries) and subjected to mechanical dissociation with a serological pipet. Supernatants were strained and centrifuged. Pellets were grown resuspended in BioAmf-2 media (Biological Industries, Israel) and plated on 10% Matrigel (BD Biosciences)-coated plates at 37° and 5% CO2. For all in vitro experiments, proliferation medium was Bio-Amf2 (Biological Industries, Israel) and Differentiation medium (DM) was DMEM 2% Horse Serum (HS) with 1% Pen/Strep. For fusion assays, cells were trypsinized with Trypsin C (0.05%, Biological Industries) and subjected to two rounds of preplating on uncoated plates to reduce the number of fibroblasts. Cells were plated at a density of 8×10^3 per well in 10% Matrigel-coated 96-well plates in proliferation medium for 24 hours. The following day, proliferation media was replaced either with proliferation media or with DM containing DMSO (Ctrl) or 1 μM ERK1/2 inhibitor (ERKi; SCH772984, Cayman Chemicals), […] RXR antagonist (RXRi; HX-531, Cayman Chemicals), […] Ryanodine receptor antagonist (RYRi; Dantrolene, Cayman Chemicals), 5 μM CaMKII inhibitor (CaMKIIi; KN93, Cayman Chemicals), or with DM for controls.
Immunofluorescence staining. First passage primary myoblasts isolated from various strains (indicated in figure legends) were plated in 96-well plates or chamber slides and treated as previously described. The cells were fixed with ice cold 4% PFA in PBS for 10 minutes, permeabilized with 0.5% Triton X-100 in PBS for 6 minutes, and blocked in PBS with 0.025% tween, 10% normal horse serum and 10% normal goat serum for 1 hour at room temperature. Primary antibody incubation was done in blocking buffer overnight at 4 degrees, with the following antibodies: Myosin Heavy Chain (MyHC, MF20, DSHB hybridoma supernatant 1:10, or MY-32 ABCAM ab51263 1:400), Myogenin (MYOG sc-13137 SCBT 1:200), pHistone 3 (PH3, ab47297 ABCAM 1:1000), Ki-67 (Cell Marque #275R), RYR (ab2868 ABCAM 1:100), and pCaMKII (SIGMA SAB4504356 1:100). Cells were washed 3 times in PBS with 0.025% tween and then incubated with appropriate secondary antibodies in PBS 1 hour. Where indicated, nuclei were either labeled with DAPI (SIGMA D9542, 5 ug/ml) or Hoechst 33342 (Thermo scientific #62249, 1:2000). Fixed cells at 24 hours post treatment with indicated inhibitors were imaged using the Nikon Eclipse Ti2 microscope (further described in microscopy section). All analysis was performed on at least 1000 nuclei. For fixed cells following the timecourse with ERKi or DM (FIG. 1B), images were captured with an inverted Olympus IX83 microscope (further details in microscopy section). All imaging analysis were performed on at least 1000 cells.

The subject of another test is primary bovine myoblasts. Kind of test: Fusion index of primary bovine myoblasts. To be noted: single administration of 0.5 uM, 72 hours post treatment. The method, then: Bovine myoblasts were seeded in equal number in 96-well plates and the following day treated either with PM, PM supplemented with 0.5 uM SCH 772984 (ERKi) or differentiation media (DM). Media was replenished daily either with fresh PM or DM (ERKi was not added again). At 72 hours post treatment, cells were fixed and stained for myosin heavy chain, and several fields per condition were imaged. Nuclei per fiber was quantified per field to result in a fusion index. For ovine myoblasts—equal number of cells were seeded in an 8 well chamber slide for 24 hours. The following day cells were treated with either with 1 uM SCH 772984 (ERKi) or differentiation media (DM), supplemented with 100 nM of Sir-Actin reagent, then incubated for 4 hours and then the slide was transferred to a heated and CO2 chambered microscope unit. Several fields of view were selected and live imaging was performed by capturing images of each field every 7 minutes. The series of images for each treatment over a period of 31 hours was stacked into a movie file using ImageJ.
Primary bovine myoblast isolation and treatment: bovine myoblasts were isolated from freshly slaughtered muscle cow muscle with collagenase type II. Following tissue dissociation, the cell suspension was grown for 3-4 days on 10% Matrigel coated plates. […]

For `O=C(Nc1ccc2[nH]nc(-c3ccncc3)c2c1)[C@@H]1CCN(CC(=O)N2CCN(c3ccc(-c4ncccn4)cc3)CC2)C1` [SCH772984], the “Sarcomeric structure (striation of actinin, troponin, phalloidin signals)” value in the test on chicken myoblasts is “sarcomeric structure is already apparent”. Moreover, the “Fraction of MYOG positive nuclei compared to DM” value in the test on primary mouse myoblasts was “significantly higher”. Further, the “Increase in fusion index compared to DM” value with primary bovine myoblasts is recorded as around 8 fold; in the test on primary bovine myoblasts (listed as ERKi), 6 fold.
